Values quoted from earlier work as cited in US8618345B2 (priority 2006, dated 2013).

How the values were obtained:
[1] = ratio to inorganic arsenic (arsenic trioxide)
[2] = in vivo

Molecule	toxicity compared with that of inorganic arsenic (arsenic trioxide) [1]	demethylation if accumulated in the body [2]	half life of a substance in the body (BHT) [2] [h]
C[As+](C)(C)CC(=O)[O-] [arsenobetaine]	approximately 1/300	no demethylation	3.5
arsenic trioxide [inorganic arsenic, reference compound]			28
